Counter-ions that a name gives are not always drawn. Like-named read-outs stand apart in the source and are kept apart here.

Data on twelve molecules can be found in paper PMC3146558 (Cellular and molecular neurobiology, 2011).

Assay [1] concerns morphine induced cAMP overshoot. Briefly: Inhibition of morphine-induced cAMP overshoot, qHTS of LOPAC library. Type of assay: cell-based.
In the next assay the test system is HEK-MOR cells. Briefly: Assay performance in 1536-well plate format. To be noted: mean ± SD from 288 wells. Type of assay: cell-based.

In the case of `CCCCCCCCCCCCCCCCCC(=O)NCC(COP(=O)([O-])OCC[N+](C)(C)C)OCC` (racemic) [rac-2-Ethoxy-3-octadecanamido-1-propylphosphocholine], the IC50 in assay [1] (18 h, read-out: Potency) turned out to be 18.4 µM.

In the case of `CC1(C(=O)O)C2CCC(O2)C1(C)C(=O)O` (centres unmarked) [Cantharidic Acid], in assay [1] (18 h, read-out: Potency), the IC50 stood at 14.6 µM.

With `C[C@@]12C(=O)OC(=O)[C@]1(C)[C@H]1CC[C@@H]2O1` [Cantharidin], the IC50 in assay [1] (18 h, read-out: Potency) came out at 13 µM. In the case of `C=CCN1CC[C@]23CCCC[C@H]2[C@H]1Cc1ccc(O)cc13` [Levallorphan tartrate], the IC50 turned out to be 0.33 µM in assay [1] (18 h, read-out: Potency) and 0.32 µM in assay [1] (read-out: IC50).

On to `CN1CC[C@]23c4c5ccc(O)c4O[C@H]2[C@@H](O)C=C[C@H]3[C@H]1C5` [Morphine, morphine sulfate pentahydrate], for which the “ratio (665nm/620nm), morphine treatment” value was determined as 1.63 ± 0.13 with HEK-MOR cells (NKH 477 10 nM), 1.08 ± 0.05 in the assay with HEK-MOR cells (NKH 477 25 nM) and 0.88 ± 0.04 with HEK-MOR cells (NKH 477 50 nM).

With `C=CCN1CC[C@]23c4c5ccc(O)c4O[C@H]2/C(=N/NC(=O)c2ccccc2)CC[C@@]3(O)[C@H]1C5` [Naloxone benzoylhydrazone], in assay [1] (18 h, read-out: Potency), the IC50 was determined as 0.41 µM.

As to `O=C1CC[C@@]2(O)[C@H]3Cc4ccc(O)c5c4[C@@]2(CCN3CC2CC2)[C@H]1O5` [Naltrexone hydrochloride], the IC50 was found to be 0.12 µM in assay [1] (18 h, read-out: Potency) and 0.11 µM in assay [1] (read-out: IC50). Turning to `Oc1ccc2c3c1O[C@H]1c4oc5ccccc5c4C[C@@]4(O)[C@@H](C2)N(CC2CC2)CC[C@]314` [Naltriben methanesulfonate], the IC50 in assay [1] (18 h, read-out: Potency) is 2.31 µM. For `Oc1ccc2c3c1O[C@H]1c4[nH]c5ccccc5c4C[C@@]4(O)[C@@H](C2)N(CC2CC2)CC[C@]314` [Naltrindole hydrochloride], the IC50 in assay [1] (18 h, read-out: Potency) was determined as 0.82 µM; in assay [1] (read-out: IC50) it was 0.81 µM.

For `C=C1C(=O)O[C@H]2[C@H]1CC/C(C)=C/CC[C@@]1(C)O[C@@H]21` [Parthenolide], the IC50 in assay [1] (18 h, read-out: Potency) worked out at 16.4 µM. Still for that read-out and setting: for `CCC(=O)c1ccc2c(c1)N(CCCN(C)C)c1ccccc1S2` [Propionylpromazine hydrochloride] the value was 16.4 µM; for `CCCN(CCC)CCc1cccc2c1CC(=O)N2` [Ropinirole hydrochloride], 18.4 µM.
